Test results published in patent US6372797B1, “Treatment of menstrual function” (Knoll Pharmaceutical Company, priority 1999, dated 2002).

Tests used:
[1] = target: [3H]Noradenaline reuptake; test: in vitro [3H]noradrenaline reuptake inhibition in rat brain tissue; assay type: biochemical; conditions: means of ≧ 3 separate determinations
[3H]Dopamine reuptake = in vitro [3H]dopamine reuptake inhibition in rat brain tissue; assay type: biochemical; conditions: means of ≧ 3 separate determinations

CC(NC(C)(C)C)C(=O)c1cccc(Cl)c1 (stereo not shown) [Bupropion]
Ki [1]: 2590 nM
Ki ([3H]Dopamine reuptake): 409 nM

COc1ccc(C(CN(C)C)C2(O)CCCCC2)cc1 (stereo not shown) [Venlafaxine]
Ki [1]: 196 nM
Ki ([3H]Dopamine reuptake): 2590 nM
